Consider 3 compounds from article PMC9737391, “Trifluoromethylcinnamanilide Michael Acceptors for Treatment of Resistant Bacterial Infections” (International Journal of Molecular Sciences, 2022).

Values after ≈ are worked out from the molar mass of the structure shown. Values joined by “and” are separate entries in the source; they are usually repeats but may differ in a detail not shown here. Equal entries are not always repeated. A value given as a limit tells only on which side of the number the result lay.

In general, MBC refers to the smallest concentration meeting the test's criterion for killing. As usually defined, the IC50 is the point on the concentration scale where inhibition reaches its midpoint. The low end stands for higher potency, the high end for lower potency. What is called melting point is the temperature of the solid-liquid transition.

The subject of data set [1] is S. aureus ATCC 29213. The following applies: MTT, at MIC value; cited from earlier work.
Data set [2] can be described thus: Lipophilicity determination by RP-HPLC. It counts as physicochemical. To be noted: RP-HPLC, logarithm of capacity factor k. As to the method: It is evident from the graphs in Figure 1 that the correlation coefficients of the dependences of log k/log D6.5/log D7.4 have a value of r = 0.999 (n = 32), which means that the investigated compounds behave insignificantly differently in aqueous media with different pH. Moreover, lipophilicity was calculated as log P and Clog P using two prediction programs. […] Therefore, only log P values predicted by ACD/Percepta can be used for correlations with experimental values. These matches are shown in the graphs in Figure 2, and according to the correlation coefficient r~0.940 (n = 32), it can be argued that even the predicted lipophilicity values correlate with the experimentally measured ones. However, the largest variations were observed (no difference for series 1, 2) for compounds substituted with 2-Cl, 2-CF3, 2,5-Cl, 4-F, 4-CF3, and 3,5-F, 3,5-Cl. These are mainly substituents capable of forming hydrogen and other types of non-bonding interactions both with the surrounding environment and within the molecule. Overall, series 1 (3-CF3) is less lipophilic than series 2 (4-CF3), but the differences in the experimental data are insignificant. Unsubstituted derivatives 1a/2a are the least lipophilic compounds, while derivatives 1o/2o (3,5-Cl) and 1p/2p (3,5-CF3) are the most lipophilic compounds.
Experimental determination of lipophilicity values (log k, log D6.5, and log D7.4) was performed under the same conditions and on the same device as described by Strharsky et al..

Data set [3] deals with Staphylococcus aureus ATCC 29213. Nature of the data set: MIC, microtitration broth method. The format is cell-based. To be noted: ATCC29213, S. aureus ATCC 29213.
The test system of data set [4] is methicillin-resistant S. aureus SA 3202 (MRSA1). Nature of the data set: MIC, microtitration broth method. It counts as cell-based. To be noted: Staphylococcus aureus; MRSA SA 3202.
Data set [5] deals with methicillin-resistant S. aureus SA 630 (MRSA2). Nature of the data set: MIC, microtitration broth method. To be noted: Staphylococcus aureus; MRSA SA 630. It counts as cell-based.
Data set [6] relates to methicillin-resistant S. aureus 63718 (MRSA3). In words: MIC, microtitration broth method. It counts as cell-based. The following applies: Staphylococcus aureus; MRSA 63718.
The subject of data set [7] is Enterococcus faecalis ATCC 29212. In words: MIC, microtitration broth method. The format is cell-based. The following applies: ATCC29212, E. faecalis reference strain.
The subject of data set [8] is vancomycin-resistant E. faecalis VRE 342B (VRE1). In words: MIC, microtitration broth method. The format is cell-based, Enterococcus faecalis.
Data set [9] has as its system vancomycin-resistant E. faecalis VRE 368 (VRE2). Nature of the data set: MIC, microtitration broth method. It counts as cell-based, Enterococcus faecalis.
For data set [10], the system named is vancomycin-resistant E. faecalis VRE 725B (VRE3). Nature of the data set: MIC, microtitration broth method. It counts as cell-based, Enterococcus faecalis.
Data set [11] concerns M. smegmatis ATCC 700084. In words: In vitro antimycobacterial evaluation (MIC). It counts as cell-based, Mycobacterium smegmatis. The following applies: Mycolicibacterium smegmatis, ATCC700084.
In data set [12] the test system is Staphylococcus aureus ATCC 29213. In words: MBC, agar aliquot subculture method. It counts as cell-based. To be noted: ATCC29213, S. aureus ATCC 29213.
Data set [13] relates to methicillin-resistant S. aureus SA 3202 (MRSA1). In words: MBC, agar aliquot subculture method. The format is cell-based. The following applies: Staphylococcus aureus; MRSA SA 3202.
Data set [14] has as its system methicillin-resistant S. aureus SA 630 (MRSA2). Nature of the data set: MBC, agar aliquot subculture method. The format is cell-based. To be noted: Staphylococcus aureus; MRSA SA 630.
Data set [15] concerns methicillin-resistant S. aureus 63718 (MRSA3). Nature of the data set: MBC, agar aliquot subculture method. It counts as cell-based. The following applies: Staphylococcus aureus; MRSA 63718.
For data set [16], the system named is Enterococcus faecalis ATCC 29212. In words: MBC, agar aliquot subculture method. The format is cell-based. The following applies: ATCC29212, E. faecalis reference strain.
Data set [17] concerns vancomycin-resistant E. faecalis VRE 342B (VRE1). Nature of the data set: MBC, agar aliquot subculture method. It counts as cell-based, Enterococcus faecalis.
Data set [18] deals with vancomycin-resistant E. faecalis VRE 368 (VRE2). Nature of the data set: MBC, agar aliquot subculture method. The format is cell-based, Enterococcus faecalis.
The subject of data set [19] is vancomycin-resistant E. faecalis VRE 725B (VRE3). Nature of the data set: MBC, agar aliquot subculture method. It counts as cell-based, Enterococcus faecalis.
The subject of data set [20] is human monocytic leukemia cell line THP-1. Nature of the data set: In vitro cell viability (cytotoxicity screening). The format is cell-based. The following applies: 24 h, medium with 10% FBS, ± SD, n = 6. The protocol: The investigated anilides can be divided into three groups. […] Higher concentrations (than 10 or 30 µM) were not possible to evaluate due to precipitation of the tested compounds in water medium. Based on all these observations, it can be concluded that the high antimicrobial activity of 3,5-CF3-substituted compounds is associated with significant cytotoxic effect against eukaryotic cells. On the other hand, the other still effective compounds, especially agents 1j and 1o, have an insignificant toxic effect, which makes them interesting for further study.
Human monocytic leukemia THP-1 cells obtained from the European Collection of Cell Cultures (ECACC, Salisbury, UK) were used for in vitro antiproliferative assays. A recently described procedure was used.

Data set [21] concerns S. aureus ATCC 29213. Nature of the data set: MTT assay, inhibition of bacterial respiration. The format is cell-based, Staphylococcus aureus. From the text:
The MTT assay can be used to assess cell growth by measuring respiration. Respiratory activity of bacterial cells (which is finally reflected in their viability) less than 70% after exposure to the MIC values for each tested compound is considered as a positive result of this assay. This low level of cell oxidative metabolism indicates inhibition of cell growth by inhibition of respiration. The lowest multiples of MIC values that achieved more than 70% inhibition of S. aureus ATCC 29213 viability (%) are shown in Table 3.
The percent inhibition of respiration of S. aureus ATCC 29213 was determined through the MTT assay. The assay was performed as described recently. The percent viability is calculated through the comparison of a measured value and that of the uninhibited control: % viability = OD570E/OD570P × 100, where OD570E is the reading from the compound-exposed cells, while OD570P is the reading from the uninhibited cells (positive control). Cytotoxic potential is determined by a percent viability of <70% [46, 47].
Background: Tetrazolium dyes change colour on reduction, which living cells bring about.

Data set [22] deals with S. aureus/MRSA. In words: Antistaphylococcal activity, summary over strains. It counts as cell-based, Staphylococcus aureus.
In data set [23] the test system is E. faecalis/VRE. In words: Anti-enterococcal activity, summary over strains. The format is cell-based, Enterococcus faecalis.
Data set [24] concerns M. tuberculosis H37Ra. Also on record: method as in ref 26 = [26]; PMID 30087309; doi:10.3390/ijms19082318; 26. Pospisilova S. Kos J. Michnova H. Kapustikova I. Strharsky T. Oravec M. Moricz A.M. Bakonyi J. Kauerova T. Kollar P. Synthesis and spectrum of biological activities of novel N -arylcinnamamides In. To be noted: average over the named compounds; cited from earlier work.

In the case of `O=C(/C=C/c1ccccc1)Nc1ccc(C(F)(F)F)c(F)c1` [3c], the “inhibition of S. aureus respiration” value in data set [1] is 86%.

For `O=C(/C=C/c1cccc(C(F)(F)F)c1)Nc1cc(Cl)cc(Cl)c1` [1o, (2E)-N-(3,5-Dichlorophenyl)-3-[3-(trifluoromethyl)phenyl]prop-2-enamide], the melting point was 124 to 126 °C. In data set [2], this compound had a log k of 1.2028. Also, the MIC in [3] turned out to be 0.694 µM (≈ 0.25 µg/mL). Further, the MIC in data set [4] stood at 1.39 µM (≈ 0.501 µg/mL). This compound also registered an MIC in [5] of 0.694 µM (≈ 0.25 µg/mL). The compound further showed an MIC in data set [6] of 0.694 µM (≈ 0.25 µg/mL). Moreover, in data set [7], the MIC was 11.1 µM (≈ 4 µg/mL). In data set [8], this compound gave an MIC of 22.2 µM (≈ 8 µg/mL). The compound also showed an MIC in data set [9] of 22.2 µM (≈ 8 µg/mL). Also, the MIC in data set [10] is 22.2 µM (≈ 8 µg/mL). Besides, the MIC in data set [11] was found to be 11.1 µM (≈ 4 µg/mL). This compound also displayed an MBC in data set [12] of 0.694 µM (≈ 0.25 µg/mL). The compound further showed an MBC in [13] of 2.78 µM (≈ 1 µg/mL). In addition, the MBC in data set [14] is 0.694 µM (≈ 0.25 µg/mL). For the same compound, the minimum bactericidal concentration (MBC) in data set [15] is 1.39 µM (≈ 0.501 µg/mL). In [16], this compound showed a minimum bactericidal concentration (MBC) of 22.2 µM (≈ 8 µg/mL). The compound further showed an MBC in [17] of 22.2 µM (≈ 8 µg/mL). The same compound yielded an MBC in [18] of 22.2 µM (≈ 8 µg/mL). This compound also returned a minimum bactericidal concentration (MBC) in data set [19] of 22.2 µM (≈ 8 µg/mL). This compound gave an IC50 in [20] above 30 µM. In data set [21], the “Conc.: lowest multiple of MIC with at least 70% inhibition of respiratory activity” value is listed as 0.25× MIC (0.25× MBC) and the “Conc.: the same concentration as multiple of MBC” value is recorded as 0.25× MIC (0.25× MBC). Besides, the MIC in data set [22] (Staphylococcus aureus, MRSA, average over the named compounds and strains, read-out: average MIC against S. aureus/MRSA) is around 1.4 µM (≈ 0.504 µg/mL). Further, the “antistaphylococcal MICs/MBCs” value in data set [22] (range over S. aureus and MRSA isolates and over the named compounds) is 0.15 to 5.57 µM and 0.146 to 5.57 µM. Also, the MIC in data set [23] (Enterococcus faecalis, VRE, average over the named compounds and strains, read-out: average MIC against E. faecalis/VRE) is around 15 µM (≈ 5.4 µg/mL). Besides, the “anti-enterococcal MICs/MBCs” value in data set [23] (range over E. faecalis and VRE isolates and over the named compounds) lay in the range of 2.34 to 44.5 µM.

On to `O=C(/C=C/c1ccccc1)Nc1ccc(Cl)c(Cl)c1` [3e], for which, in data set [24], the “average MIC against M. tuberculosis H37Ra” value was ~ 24 µM.
